Measurements as given in patent US7348425B2, “Inhibitors of HCV replication” (Bristol-Myers Squibb Company, priority 2004, dated 2008).
pEC50, pIC50: −log10 of the molar value.

Assays:
[1] = target: T1, HCV NS5B RdRp genotype 1b (Hepatitis C virus genotype 1b, UniProt Q9WMX2); assay: Modified HCV NS5B RdRp enzyme assay (with preincubation); assay type: biochemical; conditions: modified method (with preincubation)
T1 construct: The protein was expressed with an 18 amino acid C-terminal truncation to enhance the solubility; made in house; host or cells: E. coli BL21 (DE3), pET21a
T1 sequence (Q9WMX2 2420-2992): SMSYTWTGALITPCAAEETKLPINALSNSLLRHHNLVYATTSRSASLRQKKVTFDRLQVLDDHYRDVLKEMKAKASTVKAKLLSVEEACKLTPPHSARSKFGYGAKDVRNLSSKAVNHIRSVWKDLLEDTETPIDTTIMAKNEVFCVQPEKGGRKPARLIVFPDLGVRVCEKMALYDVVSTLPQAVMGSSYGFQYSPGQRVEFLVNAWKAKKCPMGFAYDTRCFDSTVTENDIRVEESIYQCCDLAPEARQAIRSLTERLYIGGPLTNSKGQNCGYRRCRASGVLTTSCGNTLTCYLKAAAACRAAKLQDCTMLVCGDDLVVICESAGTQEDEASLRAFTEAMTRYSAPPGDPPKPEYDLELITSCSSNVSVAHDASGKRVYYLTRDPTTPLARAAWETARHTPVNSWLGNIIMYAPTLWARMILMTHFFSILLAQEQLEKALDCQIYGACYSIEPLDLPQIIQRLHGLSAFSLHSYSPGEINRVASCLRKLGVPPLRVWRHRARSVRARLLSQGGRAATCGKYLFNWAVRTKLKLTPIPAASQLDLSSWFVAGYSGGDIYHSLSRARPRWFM
Outline: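 C-terminally truncated (Δ18) genotype 1b NS5B from E. coli was preincubated (14 nM) with compound, then reaction started with polyA template (0.2 nM), ³H-UTP (0.29 μM) and dT12 primer (20 nM) precaptured on SPA beads. Reaction ran 4 h at 30 °C in pH 7.5 Hepes buffer with 2% DMSO. IC50 came from seven concentrations.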

HCV replicon = HCV replicon FRET assay; assay type: cell-based; conditions: Hepatitis C virus; FRET assay; read-out: EC50
Outline: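 Replicon cells (± Renilla luciferase reporter) incubated with titrated compound at 37 °C; NS3 protease activity read by FRET peptide cleavage (20 uM EDANS/DABCYL substrate, 340/490 nm kinetic) or luciferase.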

Structure (SMILES) | pIC50 [1] | pEC50 (HCV replicon)
COC(=O)c1ccc2c(C3CCCCC3)c3n(c2c1)CC(C(=O)N1CCOCC1)Cc1ccncc1-3 (stereo not shown) | < 6.00 | 6.00 to 8.00
O=C(O)c1ccc2c(C3CCCCC3)c3n(c2c1)CC(C(=O)N1CCOCC1)Cc1ccncc1-3 (stereo not shown) | 6.00 to 7.70 | 6.00 to 8.00
CCN(C)S(=O)(=O)NC(=O)c1ccc2c(C3CCCCC3)c3n(c2c1)CC(C(=O)N1CCOCC1)=Cc1ccccc1-3 | 6.00 to 7.70 | 6.00 to 8.00
CCN(CC)S(=O)(=O)NC(=O)c1ccc2c(C3CCCCC3)c3n(c2c1)CC(C(=O)N1CCOCC1)=Cc1ccccc1-3 | 6.00 to 7.70 | 6.00 to 8.00
CC(C)NS(=O)(=O)NC(=O)c1ccc2c(C3CCCCC3)c3n(c2c1)CC(C(=O)N1CCOCC1)=Cc1ccccc1-3 | 6.00 to 7.70 | 6.00 to 8.00
O=C(NS(=O)(=O)N1CCCC1)c1ccc2c(C3CCCCC3)c3n(c2c1)CC(C(=O)N1CCOCC1)Cc1ccccc1-3 (stereo not shown) | 6.00 to 7.70 | 6.00 to 8.00
CN(C)S(=O)(=O)NC(=O)c1ccc2c(C3CCCCC3)c3n(c2c1)CC(C(=O)N1CCNCC1)=Cc1ccccc1-3 | 6.00 to 7.70 | 6.00 to 8.00
CC(C)(C)OC(=O)N1CCn2c(c(C3CCCCC3)c3ccc(C(=O)O)cc32)-c2ccccc21 | 6.00 to 7.70 | 5.00 to 6.00
CN(C)S(=O)(=O)NC(=O)c1ccc2c(C3CCCCC3)c3n(c2c1)CCN(C(=O)OC(C)(C)C)c1ccccc1-3 | 6.00 to 7.70 | 6.00 to 8.00
CN(C)S(=O)(=O)NC(=O)c1ccc2c(C3CCCCC3)c3n(c2c1)CCNc1ccccc1-3 | 6.00 to 7.70 | 6.00 to 8.00
COC(=O)c1ccc2c(C3CCCCC3)c3n(c2c1)CC(C(=O)O)=Cc1ccc(Cl)cc1-3 | < 6.00 | 5.00 to 6.00
O=C(O)c1ccc2c(C3CCCCC3)c3n(c2c1)CC(C(=O)N1CCOCC1)=Cc1ccc(Cl)cc1-3 | 6.00 to 7.70 | 5.00 to 6.00
CN(C)S(=O)(=O)NC(=O)c1ccc2c(C3CCCCC3)c3n(c2c1)CC(C(=O)N1CCOCC1)=Cc1ccc(Cl)cc1-3 | 6.00 to 7.70 | 5.00 to 6.00
COC(=O)C1=C(C)c2ccccc2-c2c(C3CCCCC3)c3ccc(C(=O)OC)cc3n2C1 | < 6.00 | 6.00 to 8.00
CN(C)S(=O)(=O)NC(=O)c1ccc2c(C3CCCCC3)c3n(c2c1)CC(C(=O)N1CCOCC1)=Cc1ccncc1-3 | 6.00 to 7.70 | 6.00 to 8.00
COC(=O)c1ccc2c(C3CCCCC3)c3n(c2c1)CC(C(=O)O)=C(C)c1ccccc1-3 | < 6.00 | 5.00 to 6.00

Structure (SMILES) | pIC50 [1] | pEC50 (HCV replicon)
Cn1c(C(=O)O)cc2cc(NC(=O)C3(NC(=O)c4ccc5c(C6CCCCC6)c6n(c5c4)CCNc4ccccc4-6)CCCC3)ccc21 | 6.00 to 7.70 | 6.00 to 8.00
O=C(O)c1ccc2c(c1)C1CCN(C(=O)N3CCOCC3)c3ccccc3C1=C2C1CCCCC1 (stereo not shown) | < 6.00 | 5.00 to 6.00
CN(C)C(=O)NC(=O)c1ccc2c(C3CCCCC3)c3n(c2c1)CC(C(=O)N1CCOCC1)=Cc1ccccc1-3 | 6.00 to 7.70 | 5.00 to 6.00
CN(C)S(=O)(=O)NC(=O)c1ccc2c(c1)N1C(O)c3cc(OCc4ccccc4)ccc3C1C2 (stereo not shown) | 6.00 to 7.70 | 6.00 to 8.00
COC(=O)c1ccc2c(C3CCCCC3)c3n(c2c1)CC(C(=O)N1CCOCC1)=C(C)c1ccccc1-3 | < 6.00 | 5.00 to 6.00
CC1=C(C(=O)N2CCOCC2)Cn2c(c(C3CCCCC3)c3ccc(C(=O)O)cc32)-c2ccccc21 | 6.00 to 7.70 | 6.00 to 8.00
COC(=O)c1ccc2c(C3CCCCC3)c3n(c2c1)C(O)c1cc(Cl)ccc1-3 (stereo not shown) | < 6.00 | 6.00 to 8.00
COc1cc(CNC(=O)c2ccc3c(C4CCCCC4)c4n(c3c2)CC(C(=O)N2CCOCC2)=Cc2ccccc2-4)ccc1O | 6.00 to 7.70 | 6.00 to 8.00
COC(=O)C1=Cc2cc(Cl)ccc2-c2c(C3CCCCC3)c3ccc(C(=O)OC)cc3n2C1 | < 6.00 | 5.00 to 6.00
CCN(CC)C1CCN(C(=O)C2=Cc3ccccc3-c3c(C4CCCCC4)c4ccc(C(=O)NS(=O)(=O)N(C)C)cc4n3C2)C1 (stereo not shown) | 6.00 to 7.70 | 6.00 to 8.00
CN(C)S(=O)(=O)NC(=O)c1ccc2c(C3CCCCC3)c3n(c2c1)CC(C(=O)N1CCCOCC1)=Cc1ccccc1-3 | 6.00 to 7.70 | 6.00 to 8.00
O=C(O)c1ccc2c(C3CCCCC3)c3n(c2c1)CCN(C(=O)Nc1ccccc1)c1ccccc1-3 | 6.00 to 7.70 | 5.00 to 6.00
O=C(O)c1ccc2c(C3CCCCC3)c3n(c2c1)CCN(C(=O)NC1CCCC1)c1ccccc1-3 | 6.00 to 7.70 | 6.00 to 8.00
CC(C)N(C)C(=O)C1=Cc2ccccc2-c2c(C3CCCCC3)c3ccc(C(=O)NS(=O)(=O)N(C)C)cc3n2C1 | 6.00 to 7.70 | 6.00 to 8.00
CN(CC(O)CO)C(=O)C1=Cc2ccccc2-c2c(C3CCCCC3)c3ccc(C(=O)NS(=O)(=O)N(C)C)cc3n2C1 (stereo not shown) | 6.00 to 7.70 | 6.00 to 8.00
CC(C)N(C(=O)C1=Cc2ccccc2-c2c(C3CCCCC3)c3ccc(C(=O)NS(=O)(=O)N(C)C)cc3n2C1)C(C)C | 6.00 to 7.70 | 6.00 to 8.00
